Source: patent publication US9221808B2, “Pyridylthiazole-based ureas as inhibitors of Rho associated protein kinase (ROCK) and methods of use” (H. Lee Moffitt Cancer Center and Research Institute, Inc., priority 2010, dated 2015)
Structures can show the parent of a compound that is named as a salt.

Tests used:
[1] = target: ROCK2 (Homo sapiens (Human), UniProt O75116); assay: FRET-based Z'-Lyte kinase assay, ROCK2; type: biochemical; details: read-out: IC50 ± SD (μM) ROCK2;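 further: kinase phosphorylates a coumarin/fluorescein FRET peptide, then a protease cleaves unphosphorylated peptide, read as donor/acceptor emission ratio after 400 nm excitation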
Description: A) In the primary reaction, the Rho kinases phosphorylates a single serine or threonine residue in a synthetic FRET-peptide. This FRET-peptide is doubly labeled with a fluorophore at each end—coumarin (the FRET donor) on one end and fluorescein (the FRET acceptor) on the other—and also contains a single phosphorylation site which either overlaps with or lies adjacent to the proteolytic site. B) In the secondary reaction, a site-specific protease recognizes and cleaves the non-phosphorylated FRET-peptide. Cleavage disrupts FRET between the donor and acceptor fluorophores on the FRET-peptide, whereas uncleaved, phosphorylated FRET-peptides maintain FRET. Kinases phosphorylated FRET-peptides cannot be cleaved by the protease. […] Cleavage disrupts FRET and causes a decrease in the fluorescein fluorescence signal and a strong increase in the coumarin fluorescence signal. Therefore the extension of the phosphprylation can be measured by FRET-signal remaining the protease reaction. The assay uses a ratiometric method, which calculates the ratio of donor emission to acceptor emission (the emission ratio) after excitation of the donor fluorophore at 400 nm, to quantitate reaction progress.
All compounds were systematically screened against ROCK1 and ROCK2.

[2] = target: ROCK1 (Homo sapiens (Human), UniProt Q13464); assay: FRET-based Z'-Lyte kinase assay, ROCK1; type: biochemical; details: for IC50: read-out: IC50 ± SD (μM) ROCK1; for fold decrease in activity compared to 1bo: comparator 1bo (comparator for 1bn not stated); for fold decrease in ROCK1 activity/potency compared to parent compound 1aa: comparator 1aa; for fold loss of potency compared to 1at: comparator 1at;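 on all read-outs here: kinase phosphorylates a coumarin/fluorescein-labelled FRET peptide, then a protease cleaves unphosphorylated peptide, progress read as donor to acceptor emission ratio after 400 nm excitation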
ROCK1, sequence (Q13464 whole entry, species assumed): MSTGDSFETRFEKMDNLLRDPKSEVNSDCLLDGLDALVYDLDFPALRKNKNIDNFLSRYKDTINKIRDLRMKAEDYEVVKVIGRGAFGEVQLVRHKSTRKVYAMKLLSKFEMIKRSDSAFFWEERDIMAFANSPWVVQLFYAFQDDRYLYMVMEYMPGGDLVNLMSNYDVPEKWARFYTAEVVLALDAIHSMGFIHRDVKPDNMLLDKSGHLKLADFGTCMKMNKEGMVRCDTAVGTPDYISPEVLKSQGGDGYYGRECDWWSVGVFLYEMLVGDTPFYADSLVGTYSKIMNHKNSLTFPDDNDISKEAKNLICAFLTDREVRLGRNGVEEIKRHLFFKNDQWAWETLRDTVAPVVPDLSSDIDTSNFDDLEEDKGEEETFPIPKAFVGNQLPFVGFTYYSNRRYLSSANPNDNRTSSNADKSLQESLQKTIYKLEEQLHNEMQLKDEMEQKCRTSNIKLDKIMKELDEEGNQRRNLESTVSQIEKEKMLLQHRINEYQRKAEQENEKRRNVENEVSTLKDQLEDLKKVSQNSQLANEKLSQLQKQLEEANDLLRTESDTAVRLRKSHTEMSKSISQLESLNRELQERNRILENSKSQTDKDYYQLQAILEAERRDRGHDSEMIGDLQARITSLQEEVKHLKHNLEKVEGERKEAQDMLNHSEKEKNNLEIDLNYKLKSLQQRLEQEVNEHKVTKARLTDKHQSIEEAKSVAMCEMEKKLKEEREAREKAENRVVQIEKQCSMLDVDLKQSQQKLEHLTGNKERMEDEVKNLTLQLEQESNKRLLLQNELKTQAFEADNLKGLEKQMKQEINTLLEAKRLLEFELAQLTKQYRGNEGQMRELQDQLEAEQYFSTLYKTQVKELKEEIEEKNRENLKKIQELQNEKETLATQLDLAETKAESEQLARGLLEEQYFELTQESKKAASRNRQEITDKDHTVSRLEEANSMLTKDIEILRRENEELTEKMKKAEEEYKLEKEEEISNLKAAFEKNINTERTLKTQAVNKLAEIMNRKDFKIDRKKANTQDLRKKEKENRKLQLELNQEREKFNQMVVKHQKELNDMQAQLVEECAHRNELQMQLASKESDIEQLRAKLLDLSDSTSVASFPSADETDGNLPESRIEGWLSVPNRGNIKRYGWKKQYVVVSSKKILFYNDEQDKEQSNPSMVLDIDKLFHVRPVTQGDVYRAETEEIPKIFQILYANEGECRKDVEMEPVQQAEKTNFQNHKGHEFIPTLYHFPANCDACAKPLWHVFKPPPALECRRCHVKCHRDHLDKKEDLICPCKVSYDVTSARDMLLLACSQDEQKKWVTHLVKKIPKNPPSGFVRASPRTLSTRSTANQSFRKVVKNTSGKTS

ROCK2, sequence (O75116 whole entry, species assumed): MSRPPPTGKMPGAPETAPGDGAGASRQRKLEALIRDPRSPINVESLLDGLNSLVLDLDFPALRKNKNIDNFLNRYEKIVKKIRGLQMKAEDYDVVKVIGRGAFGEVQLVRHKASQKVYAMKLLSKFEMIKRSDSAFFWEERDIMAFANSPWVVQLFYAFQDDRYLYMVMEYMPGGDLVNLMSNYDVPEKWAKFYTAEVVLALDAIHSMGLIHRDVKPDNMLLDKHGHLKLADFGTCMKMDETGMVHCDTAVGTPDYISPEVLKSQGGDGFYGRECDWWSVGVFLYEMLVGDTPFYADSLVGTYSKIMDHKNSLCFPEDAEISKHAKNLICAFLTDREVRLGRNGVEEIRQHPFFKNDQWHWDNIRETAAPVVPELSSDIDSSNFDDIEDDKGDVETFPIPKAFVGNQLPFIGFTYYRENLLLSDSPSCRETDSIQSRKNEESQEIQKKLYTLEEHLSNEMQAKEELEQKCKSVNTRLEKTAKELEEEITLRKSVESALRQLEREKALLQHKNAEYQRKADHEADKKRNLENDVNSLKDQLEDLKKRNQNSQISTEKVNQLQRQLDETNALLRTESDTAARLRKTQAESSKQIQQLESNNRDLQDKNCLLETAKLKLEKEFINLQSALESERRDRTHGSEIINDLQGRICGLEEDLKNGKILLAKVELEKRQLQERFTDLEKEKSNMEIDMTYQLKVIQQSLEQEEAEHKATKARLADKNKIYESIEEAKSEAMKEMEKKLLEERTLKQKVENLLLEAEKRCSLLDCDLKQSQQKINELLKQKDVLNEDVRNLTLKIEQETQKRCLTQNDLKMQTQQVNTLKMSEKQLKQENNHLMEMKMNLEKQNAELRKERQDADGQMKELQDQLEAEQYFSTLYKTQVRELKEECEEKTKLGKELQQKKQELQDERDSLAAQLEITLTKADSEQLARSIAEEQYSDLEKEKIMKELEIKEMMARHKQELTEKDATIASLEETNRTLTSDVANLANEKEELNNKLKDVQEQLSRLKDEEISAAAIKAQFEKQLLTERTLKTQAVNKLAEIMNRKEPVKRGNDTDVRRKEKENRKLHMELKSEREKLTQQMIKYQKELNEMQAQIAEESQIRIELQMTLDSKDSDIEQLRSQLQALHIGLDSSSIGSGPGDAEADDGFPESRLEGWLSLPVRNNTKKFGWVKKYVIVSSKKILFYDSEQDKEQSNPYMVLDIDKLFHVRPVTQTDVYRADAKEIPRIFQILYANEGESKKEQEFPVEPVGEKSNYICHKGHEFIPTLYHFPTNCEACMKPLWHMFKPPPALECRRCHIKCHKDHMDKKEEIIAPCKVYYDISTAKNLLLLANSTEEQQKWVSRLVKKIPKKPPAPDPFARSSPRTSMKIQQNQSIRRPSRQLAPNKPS

Structure (SMILES)	IC50 [1]	IC50 [2]	further results
O=C(NCc1ccc(O)cc1)Nc1nc(-c2ccncc2)cs1 [Compound 1ax, 1-(4-Hydroxybenzyl)-3-(4-(pyridin-4-yl)thiazol-2-yl)urea]	0.14 ± 0.029 µM	0.38 ± 0.046 µM	
Nc1cccc(CNC(=O)Nc2nc(-c3ccncc3)cs2)c1 [Compound 1ay, 1-(3-Aminobenzyl)-3-(4-(pyridin-4-yl)thiazol-2-yl)urea]	0.02 ± 0.008 µM	0.05 ± 0.009 µM	fold decrease in activity compared to 1bo [2]: 6 fold
Cc1cccc(CNC(=O)Nc2nc(-c3ccncc3)cs2)c1 [Compound 1ba, 1-(3-Methylbenzyl)-3-(4-(pyridin-4-yl)thiazol-2-yl)urea]	0.12 ± 0.03 µM	0.46 ± 0.08 µM	fold decrease in ROCK1 activity/potency compared to parent compound 1aa [2]: 3 fold
COc1cccc(CNC(=O)Nc2nc(-c3ccncc3)cs2)c1OC [Compound 1bc, 1-(2,3-Dimethoxybenzyl)-3-(4-(pyridin-4-yl)thiazol-2-yl)urea]	19.7 ± 2.94 µM	35.4 ± 6.78 µM	
Cc1ccc(CNC(=O)Nc2nc(-c3ccncc3)cs2)cc1 [Compound 1bd, 1-(4-Methylbenzyl)-3-(4-(pyridin-4-yl)thiazol-2-yl)urea]	2.05 ± 0.15 µM	5.16 ± 0.51 µM	
CC[C@@H](NC(=O)Nc1nc(-c2ccncc2)cs1)c1ccccc1 [Compound 1be, (R)-1-(1-Phenylpropyl)-3-(4-(pyridin-4-yl)thiazol-2-yl)urea]	0.03 ± 0.01 µM	0.09 ± 0.02 µM	fold decrease in ROCK1 activity/potency compared to parent compound 1aa [2]: 3.5 fold; fold more potent/active than its enantiomer ([2]; comparator: enantiomer (1ai for 1ah, 1bf for 1be)): 745 fold
CC[C@H](NC(=O)Nc1nc(-c2ccncc2)cs1)c1ccccc1 [Compound 1bf, (S)-1-(1-Phenylpropyl)-3-(4-(pyridin-4-yl)thiazol-2-yl)urea]	22 ± 7.79 µM	52.2 ± 3.64 µM	
COc1cccc([C@H](C)NC(=O)Nc2nc(-c3ccncc3)cs2)c1 [Compound 1bg, (S)-1-(1-(3-Methoxyphenyl)ethyl)-3-(4-(pyridin-4-yl)thiazol-2-yl)urea]	3.25 ± 0.96 µM	18.7 ± 2.09 µM	
O=C(Nc1nc(-c2ccncc2)cs1)NC(c1ccccc1)c1ccccc1 [Compound 1bi, 1-Benzhydryl-3-(4-(pyridin-4-yl)thiazol-2-yl)urea]	0.53 ± 0.1 µM	1.87 ± 0.54 µM	fold decrease in ROCK1 activity/potency compared to parent compound 1aa [2]: 12 fold
COC[C@@H](NC(=O)Nc1nc(-c2ccncc2)cs1)c1ccccc1 [Compound 1bj, (S)-1-(2-Methoxy-1-phenylethyl)-3-(4-(pyridin-4-yl)thiazol-2-yl)urea]	0.03 ± 0.009 µM	0.07 ± 0.005 µM	fold loss of potency compared to 1at [2]: 3.5 fold
COC[C@H](NC(=O)Nc1nc(-c2ccncc2)cs1)c1ccccc1 [Compound 1bk, (R)-1-(2-Methoxy-1-phenylethyl)-3-(4-(pyridin-4-yl)thiazol-2-yl)urea]	11.5 ± 1.24 µM	29.5 ± 3.28 µM	
Nc1ccc(CNC(=O)Nc2nc(-c3ccncc3)cs2)cc1 [Compound 1bl, 1-(4-Aminobenzyl)-3-(4-(pyridin-4-yl)thiazol-2-yl)urea]	17.4 ± 3.79 µM	45.9 ± 5.15 µM	
COCCOc1cccc(CNC(=O)Nc2nc(-c3ccncc3)cs2)c1 [Compound 1bm, 1-(3-(2-Methoxyethoxy)benzyl)-3-(4-(pyridin-4-yl)thiazol-2-yl)urea]	0.24 ± 0.03 µM	0.5 ± 0.05 µM	
O=C(NCc1cccc2[nH]ccc12)Nc1nc(-c2ccncc2)cs1 [Compound 1bn, 1-((1H-indol-4-yl)methyl)-3-(4-(pyridin-4-yl)thiazol-2-yl)urea]	31.1 ± 9.14 µM	37.8 ± 7.81 µM	fold decrease in activity compared to 1bo [2]: 470 fold
O=C(NCc1ccccc1O)Nc1nc(-c2ccncc2)cs1 [Compound 1bp, 1-(2-Hydroxybenzyl)-3-(4-(pyridin-4-yl)thiazol-2-yl)urea]	0.28 ± 0.05 µM	0.62 ± 0.019 µM	
CNc1cccc(CNC(=O)Nc2nc(-c3ccncc3)cs2)c1 [Compound 1bq, 1-(3-(Methylamino)benzyl)-3-(4-(pyridin-4-yl)thiazol-2-yl)urea]	0.24 ± 0.04 µM	0.47 ± 0.013 µM	
O=C(NCc1cccc(OC(F)F)c1)Nc1nc(-c2ccncc2)cs1 [Compound 1bs, 1-(3-(Difluoromethoxy)benzyl)-3-(4-(pyridin-4-yl)thiazol-2-yl)urea]	0.35 ± 0.08 µM	0.92 ± 0.1 µM	
Cc1ccccc1CNC(=O)Nc1nc(-c2ccncc2)cs1 [Compound 1bt, 1-(2-Methylbenzyl)-3-(4-(pyridin-4-yl)thiazol-2-yl)urea]	0.12 ± 0.02 µM	0.15 ± 0.03 µM	

The next lines start with results.

IC50 [1]	IC50 [2]	Structure (SMILES)	further results
3.44 ± 0.87 µM	13 ± 1.38 µM	CC(C)Oc1cccc(CNC(=O)Nc2nc(-c3ccncc3)cs2)c1 [Compound 1bu, 1-(3-Isopropoxybenzyl)-3-(4-(pyridin-4-yl)thiazol-2-yl)urea]	
2.1 ± 0.36 µM	3.7 ± 0.5 µM	NC(=O)[C@H](NC(=O)Nc1nc(-c2ccncc2)cs1)c1ccccc1 [Compound 1bv, (R)-2-Phenyl-2-(3-(4-(pyridin-4-yl)thiazol-2-yl)ureido)acetamide]	
0.29 ± 0.17 µM	2.14 ± 0.62 µM	CCOc1cccc(CNC(=O)Nc2nc(-c3ccncc3)cs2)c1 [Compound 1bw, 1-(3-ethoxybenzyl)-3-(4-(pyridin-4-yl)thiazol-2-yl)urea]	
0.68 ± 0.43 µM	3.36 ± 1 µM	CCCOc1cccc(CNC(=O)Nc2nc(-c3ccncc3)cs2)c1 [Compound 1bx, 1-(3-propoxybenzyl)-3-(4-(pyridin-4-yl)thiazol-2-yl)urea]	
11.9 ± 4.69 µM	> 50 µM	COc1ccc([C@@H](C)NC(=O)Nc2nc(-c3ccncc3)cs2)cc1 [Compound 1bz, (R)-1-(1-(4-methoxyphenyl)ethyl)-3-(4-(pyridin-4-yl)thiazol-2-yl)urea]	
0.28 ± 0.13 µM	0.43 ± 0.13 µM	CC(NC(=O)Nc1nc(-c2ccncc2)cs1)c1cccc(F)c1 (stereo not shown) [Compound 1ca, 1-(1-(3-fluorophenyl)ethyl)-3-(4-(pyridin-4-yl)thiazol-2-yl)urea]	
0.07 ± 0.02 µM	0.55 ± 0.32 µM	C[C@@H](NC(=O)Nc1nc(-c2ccncc2)cs1)c1cccc(Cl)c1 [Compound 1cb, (R)-1-(1-(3-chlorophenyl)ethyl)-3-(4-(pyridin-4-yl)thiazol-2-yl)urea]	
0.03 ± 0.01 µM	0.11 ± 0.01 µM	C[C@@H](NC(=O)Nc1nc(-c2ccncc2)cs1)c1cccc(F)c1 [Compound 1cc, (R)-1-(1-(3-fluorophenyl)ethyl)-3-(4-(pyridin-4-yl)thiazol-2-yl)urea]	fold less potent than 1ah ([2]; comparator 1ah): 3 fold
0.96 ± 0.56 µM	4.07 ± 2.76 µM	O=C(NCc1cc(F)cc(F)c1)Nc1nc(-c2ccncc2)cs1 [Compound 1cd, 1-(3,5-difluorobenzyl)-3-(4-(pyridin-4-yl)thiazol-2-yl)urea]	
11 ± 6.74 µM	30 ± 10 µM	C[C@H](NC(=O)Nc1nc(-c2ccncc2)cs1)c1cccc(F)c1 [Compound 1cf, (S)-1-(1-(3-fluorophenyl)ethyl)-3-(4-(pyridin-4-yl)thiazol-2-yl)urea]	
0.1 ± 0.03 µM	0.56 ± 0.1 µM	CS(=O)(=O)Nc1cccc(CNC(=O)Nc2nc(-c3ccncc3)cs2)c1 [Compound 1ch, N-(3-β3-(4-(pyridin-4-yl)thiazol-2-yl)ureido)methyl)phenyl)-methanesulfonamide hydrochloride]	
0.13 ± 0.02 µM	1.25 ± 0.21 µM	CC(=O)Nc1cccc(CNC(=O)Nc2nc(-c3ccncc3)cs2)c1 [Compound 1ci, N-(3-((3-(4-(pyridin-4-yl)thiazol-2yl)ureido)methyl)phenyl)acetamide hydrochloride]	
0.18 ± 0.04 µM	1.15 ± 0.39 µM	NC(=O)Nc1cccc(CNC(=O)Nc2nc(-c3ccncc3)cs2)c1 [Compound 1cj, hydrochloride]	
25 ± 1.01 µM	45.1 ± 5.57 µM	COc1ccc(CNC(=O)Nc2nc(-c3ccncc3)cs2)cc1OC [Compound 1ck, 1-(3,4-Dimethoxybenzyl)-3-(4-(pyridin-4-yl)thiazol-2-yl)urea]	
0.07 ± 0.02 µM	0.19 ± 0.04 µM	CC(C)(NC(=O)Nc1nc(-c2ccncc2)cs1)c1ccccc1 [Compound 1cl, 1-(2-Phenylpropan-2-yl)-3-(4-(pyridin-4-yl)thiazol-2-yl)urea]	
0.015 ± 0.004 µM	0.04 ± 0.01 µM	COc1cccc(CN(C)C(=O)Nc2nc(-c3ccncc3)cs2)c1 [Compound 1cm, 1-(3-Methoxybenzyl)-1-methyl-3-(4-(pyridin-4-yl)thiazol-2-yl)urea]	
0.047 ± 0.018 µM	0.12 ± 0.04 µM	C[C@H](c1ccccc1)N(C)C(=O)Nc1nc(-c2ccncc2)cs1 [Compound 1cn, (R)-1-Methyl-1-(1-phenylethyl)-3-(4-(pyridin-4-yl)thiazol-2-yl)urea]	
2.67 ± 0.89 µM	6.44 ± 1.67 µM	C[C@@H](c1ccccc1)N(C)C(=O)Nc1nc(-c2ccncc2)cs1 [Compound 1co, (S)-1-Methyl-1-(1-phenylethyl)-3-(4-(pyridin-4-yl)thiazol-2-yl)urea]	
0.04 ± 0.016 µM	0.08 ± 0.01 µM	NC(=O)[C@@H](NC(=O)Nc1nc(-c2ccncc2)cs1)c1ccccc1 [Compound 1cp, (S)-2-Phenyl-2-(3-(4-(pyridin-4-yl)thiazol-2-yl)ureido)acetamide]	fold loss of potency compared to 1at [2]: 11 fold
1.95 ± 0.389 µM	3.87 ± 0.351 µM	O=C(Nc1nc(-c2ccncc2)cs1)N1CCc2ccccc2C1 [Compound 1cq, N-(4-(Pyridin-4-yl)thiazol-2-yl)-3,4-dihydroisoquinoline-2(1H)-carboxamide]	
52.5 ± 1.75 µM	28.2 ± 1.84 µM	O=C(Nc1nc(-c2ccncc2)cs1)N[C@@H]1CCc2ccccc21 [Compound 1ct, (R)-1-(2,3-Dihydro-1H-inden-1-yl)-3-(4-(pyridin-4-yl)thiazol-2-yl)urea]	
1.83 ± 0.56 µM	3.21 ± 0.9 µM	O=C(Nc1nc(-c2ccncc2)cs1)N[C@H]1CCc2ccccc21 [Compound 1cu, (S)-1-(2,3-Dihydro-1H-inden-1-yl)-3-(4-(pyridin-4-yl)thiazol-2-yl)urea]	
3.82 ± 1.53 µM	6.99 ± 1.61 µM	O=C(Nc1nc(-c2ccncc2)cs1)N[C@@H]1CCCc2ccccc21 [Compound 1cv, (R)-1-(4-(Pyridin-4-yl)thiazol-2-yl)-3-(1,2,3,4-tetrahydronaphthalen-1-yl)urea]	
